Blank lines part the entries; values can stand above or below the molecule they belong to. Where a SMILES comes first, the peptide text is derived from it. The star is where a group is joined. DOTA = O=C(O)CN1CCN(CC(=O)O)CCN(CC(=O)*)CCN(CC(=O)O)CC1
Tests used:
[1] = tested on: human colonic tumor cell line, termed GW-39; assay: Biodistribution in nude mice bearing GW-39 tumors; design: species or system NcR athymic nude mice; details: mouse, in vivo
Procedure: NcR athymic nude mice are implanted with cells of the human colonic tumor cell line, termed GW-39. When tumors have reached an appropriate size (>100 mm^3) agents are injected. The I-125-radioiodinated msAb is given first, and at different later times the In-111-IMP-236 is administered. The latter radiolabeled peptide is also given alone to a control group of animals. Doses given to each animal are 1.5×10^−10 moles of I-125-hMN-14×mLG1 (8 uCi of I-125 per animal), and 1.5×10^−11 moles of In-111-IMP-236. At specified times post-injection of the labeled IMP-236 animals are sacrificed and major internal tissues are collected and quantified for both I-125 and In-111 radioactivity.

LG1 IgG antibody = assay: Binding of radiolabeled IMP 236 by LG1 on size-exclusion HPLC; design: species or system mouse; details: mixed with excess LG1; SE-HPLC shift
Procedure: Typical procedures for the production of radiolabeled DOTA-peptides incorporating, for example, Y-90 and Lu-177 are as follows. Of particular importance is the maximum specific activity achievable, which depends on the quality of the isotope. The radionuclide, obtained in an acidic solution, is treated with an excess of an acetate buffer, to a final pH of 4-6, and added to the DOTA-peptide conjugate, also in acetate buffer. All manipulations are carried out using acid-washed and metal-free components. The labeling mixture is heated at 45° C. for one hour and then allowed to cool to room temperature. Radiolabeled peptides are analyzed by RP-HPLC to determine incorporation, and are tested for binding to LG1, by mixing with a small excess of the LG1 mAb, and testing by analytical size-exclusion HPLC.
Yttrium-90 (^˜400 uCi per kit) is diluted to 1 mL in deionized water and added in one portion to the lyophilized IMP 236 kits of example 12. The kits are heated in a boiling water-bath for 15 min, and the vials then cooled to room temperature. The Y-90 radiolabeled peptides are analyzed by reverse-phase HPLC. […]
Indium-111 [In-111] radionuclide (^˜300 uCi added per kit) is diluted to 0.5 mL in deionized water and added to the lyophilized kits. […] The labeled peptide vials are cooled to room temperature and evaluated by reverse-phase HPLC. […]

hMN-14-DOTA-yttrium-90 = assay: Qualitative binding on size-exclusion HPLC; details: SE-HPLC
hLL2-DOTA-yttrium = assay: Qualitative binding on size-exclusion HPLC; details: SE-HPLC
Description: (§1) The msAb, LG1×hMN-14 (Fab′×Fab) is shown by the same analysis to bind to hLL2-DOTA-yttrium.

hLL2-DOTA = assay: Qualitative binding on size-exclusion HPLC; details: SE-HPLC
Description: as §1

- elimination [1]: quickly eliminated via the renal system
Molecule: CC(=O)N[C@@H](Cc1ccccc1)C(=O)N[C@@H](CCCCNC(=O)CN1CCN(CC(=O)O)CCN(CC(=O)O)CCN(CC(=O)O)CC1)C(=O)N[C@@H](Cc1ccc(O)cc1)C(=O)N[C@@H](CCCCNC(=O)CN1CCN(CC(=O)O)CCN(CC(=O)O)CCN(CC(=O)O)CC1)C(N)=O [In-111-IMP-236, metal not drawn] (Ac-FK(DOTA)YK(DOTA)-NH2)
- Blood, 30 minutes [1]: 1.0 ± 0.3 percent injected dose per gram of tissue
- Blood, 3 h [1]: 0.0 ± 0.0 percent injected dose per gram of tissue
- Blood, 24 h [1]: 0.0 ± 0.0 percent injected dose per gram of tissue
- Blood, In-111, 3 h [1]: 0.4 ± 0.0 percent injected dose per gram of tissue
- Blood, In-111, 24 h [1]: 0.0 ± 0.0 percent injected dose per gram of tissue
- Kidney, 30 minutes [1]: 4.2 ± 0.7 percent injected dose per gram of tissue
- Kidney, 3 h [1]: 2.2 ± 0.2 percent injected dose per gram of tissue
- Kidney, 24 h [1]: 0.0 ± 0.0 percent injected dose per gram of tissue
- Kidney, In-111, 3 h [1]: 2.5 ± 0.6 percent injected dose per gram of tissue
- Kidney, In-111, 24 h [1]: 1.0 ± 0.2 percent injected dose per gram of tissue
- Liver, 30 minutes [1]: 0.3 ± 0.1 percent injected dose per gram of tissue
- Liver, 3 h [1]: 0.2 ± 0.1 percent injected dose per gram of tissue
- Liver, 24 h [1]: 0.0 ± 0.0 percent injected dose per gram of tissue
- Liver, In-111, 3 h [1]: 0.2 ± 0.0 percent injected dose per gram of tissue
- Liver, In-111, 24 h [1]: 0.1 ± 0.0 percent injected dose per gram of tissue
- Lungs, 30 minutes [1]: 0.7 ± 0.2 percent injected dose per gram of tissue
- Lungs, 3 h [1]: 0.1 ± 0.0 percent injected dose per gram of tissue
- Lungs, 24 h [1]: 0.0 ± 0.0 percent injected dose per gram of tissue
- Lungs, In-111, 3 h [1]: 0.2 ± 0.0 percent injected dose per gram of tissue
- Lungs, In-111, 24 h [1]: 0.0 ± 0.0 percent injected dose per gram of tissue
- Spleen, 30 minutes [1]: 0.3 ± 0.1 percent injected dose per gram of tissue
- Spleen, 3 h [1]: 0.1 ± 0.0 percent injected dose per gram of tissue
- Spleen, 24 h [1]: 0.0 ± 0.0 percent injected dose per gram of tissue
- Spleen, In-111, 3 h [1]: 0.2 ± 0.0 percent injected dose per gram of tissue
- Spleen, In-111, 24 h [1]: 0.1 ± 0.0 percent injected dose per gram of tissue
- Stomach, 30 minutes [1]: 0.2 ± 0.1 percent injected dose per gram of tissue
- Stomach, 3 h [1]: 0.0 ± 0.0 percent injected dose per gram of tissue
- Stomach, 24 h [1]: 0.0 ± 0.0 percent injected dose per gram of tissue
- Stomach, In-111, 3 h [1]: 0.1 ± 0.2 percent injected dose per gram of tissue
- Stomach, In-111, 24 h [1]: 0.0 ± 0.0 percent injected dose per gram of tissue
- Tumor, 30 minutes [1]: 1.6 ± 0.3 percent injected dose per gram of tissue
- Tumor, 3 h [1]: 0.1 ± 0.0 percent injected dose per gram of tissue
- Tumor, 24 h [1]: 0.0 ± 0.0 percent injected dose per gram of tissue
- Tumor, In-111, 3 h [1]: 6.4 ± 1.1 percent injected dose per gram of tissue
- Tumor, In-111, 24 h [1]: 1.3 ± 0.3 percent injected dose per gram of tissue

Molecule: Ac-Phe-Lys(DOTA)-Tyr-Lys(DOTA)-NH2 (Ac-FK(DOTA)YK(DOTA)-NH2; SMILES CC(=O)N[C@@H](Cc1ccccc1)C(=O)N[C@@H](CCCCNC(=O)CN1CCN(CC(=O)O)CCN(CC(=O)O)CCN(CC(=O)O)CC1)C(=O)N[C@@H](Cc1ccc(O)cc1)C(=O)N[C@@H](CCCCNC(=O)CN1CCN(CC(=O)O)CCN(CC(=O)O)CCN(CC(=O)O)CC1)C(N)=O) [IMP 236]
- binding of radiolabeled peptide by LG1 (LG1 IgG antibody): bind strongly

- binding to hMN-14-DOTA-yttrium-90 (hMN-14-DOTA-yttrium-90): positive binding
- binding to hLL2-DOTA-yttrium (hLL2-DOTA-yttrium): positive binding
- binding to hLL2-DOTA (hLL2-DOTA): positive binding
B1: Fab fragment of LG1: Fab fragment from ficin digestion of LG1 IgG (antibody, V domains shown)
VH: EVMLVESGGGLVKPGGSLTLSCAASGFTFTAHAMSWVRQTPEKRLEWVATISGGGTYTYFPDSFQGRFTISSDNAKNTLYLQMSSLRSEDTSMYFCTRHGDYRYAFGYWGQGTLVTVSA
VL: VVTQESALTTSPGETVTLTCRSSSGAVTTNNYANWVQEKPDHLFTGLIGGTNNRAPGVPARFSGSLIGDKAALTITGAQTEDEAIYFCALWFSDHWVFGGGTELTVLG

— patent US7230085B2, “Anti-DOTA antibody” (Immunomedics, Inc., priority 2001, dated 2007)
